This passage reports IC50 and Ki results from ChEMBL document CHEMBL1909046, “DrugMatrix in vitro pharmacology data”.

Series [1] in a line: DRUGMATRIX: Phosphodiesterase PDE3 enzyme inhibition (substrate: [3H]cAMP + cAMP). The format is tissue-based, Homo sapiens. The note with it: platelet; Not Active = under 50% inhibition at 10 µM.
In series [2] the target is Voltage-gated inwardly rectifying potassium channel KCNH2 (Homo sapiens, UniProt Q12809). The note with it: hek293. Also: in other assays of this panel Not Active means under 50% inhibition at 10 µM.
The target in series [3] is T1, Alpha-2C adrenergic receptor (Homo sapiens, UniProt P18825).
T1 sequence (P18825 whole entry): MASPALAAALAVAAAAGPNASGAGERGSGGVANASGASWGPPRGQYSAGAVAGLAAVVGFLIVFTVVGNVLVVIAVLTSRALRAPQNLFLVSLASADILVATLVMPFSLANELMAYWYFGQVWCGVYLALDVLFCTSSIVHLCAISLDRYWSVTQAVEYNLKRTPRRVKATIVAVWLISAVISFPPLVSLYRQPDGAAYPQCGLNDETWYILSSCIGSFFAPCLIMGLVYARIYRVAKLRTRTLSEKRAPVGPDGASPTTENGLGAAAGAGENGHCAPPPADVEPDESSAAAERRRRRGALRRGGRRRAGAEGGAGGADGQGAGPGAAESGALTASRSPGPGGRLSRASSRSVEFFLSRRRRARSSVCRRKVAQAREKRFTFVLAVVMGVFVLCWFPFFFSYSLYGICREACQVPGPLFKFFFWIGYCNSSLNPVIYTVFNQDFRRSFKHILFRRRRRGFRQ
Kind of series: DRUGMATRIX: Adrenergic Alpha-2C radioligand binding (ligand: [3H] MK-912). The format is cell membranes, Sf9, Membrane. The note with it: sf9.

The target of series [4] is D(1A) dopamine receptor (Homo sapiens, UniProt P21728). Briefly: DRUGMATRIX: Dopamine D1 radioligand binding (ligand: [3H] SCH-23390). The note with it: cho; Not Active = under 50% inhibition at 10 µM. Format: cell membranes, CHO, Membrane.
Series [5] concerns the target T2, Cytochrome P450 1A2 (Homo sapiens, UniProt P05177). Also: in other assays of this panel Not Active means under 50% inhibition at 10 µM.
T2 sequence (P05177 whole entry): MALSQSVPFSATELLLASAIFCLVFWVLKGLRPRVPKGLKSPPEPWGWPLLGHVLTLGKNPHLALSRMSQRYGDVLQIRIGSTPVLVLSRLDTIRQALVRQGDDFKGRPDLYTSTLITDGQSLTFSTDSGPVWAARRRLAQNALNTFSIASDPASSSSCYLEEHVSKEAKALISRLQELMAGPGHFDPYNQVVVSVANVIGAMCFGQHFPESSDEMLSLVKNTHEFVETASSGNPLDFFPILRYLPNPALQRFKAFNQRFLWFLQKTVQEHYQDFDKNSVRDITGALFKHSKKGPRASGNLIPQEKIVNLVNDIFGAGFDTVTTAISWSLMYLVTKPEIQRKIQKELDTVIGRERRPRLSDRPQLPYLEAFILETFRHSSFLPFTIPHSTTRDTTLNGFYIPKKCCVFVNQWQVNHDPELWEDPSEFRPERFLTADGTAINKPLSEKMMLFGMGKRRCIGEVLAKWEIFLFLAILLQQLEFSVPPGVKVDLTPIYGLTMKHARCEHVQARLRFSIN
The note with it: bti-tn-5b1-4.

The target in series [6] is 5-hydroxytryptamine receptor 1B (Rattus norvegicus, UniProt P28564). Format: cell membranes, Wistar, Cerebral cortex, Membrane. Also: in other assays of this panel Not Active means under 50% inhibition at 10 µM.
For series [7], the target named is 5-hydroxytryptamine receptor 2B (Homo sapiens, UniProt P41595). The format is cell membranes, CHO-K1, Membrane. Also: in other assays of this panel Not Active means under 50% inhibition at 10 µM.
Series [8] concerns the target Cytochrome P450 2D6 (Homo sapiens, UniProt P10635). The note with it: bti-tn-5b1-4. Also: in other assays of this panel Not Active means under 50% inhibition at 10 µM.
A short description of series [9]: DRUGMATRIX: Nicotinic Acetylcholine radioligand binding (ligand: [125I] Epibatidine). Conditions: imr-32; Not Active = under 50% inhibition at 10 µM. Format: cell membranes, Membrane.
For series [10], the target named is T3, Glucocorticoid receptor (Homo sapiens, UniProt P04150). Also: in other assays of this panel Not Active means under 50% inhibition at 10 µM.
T3 sequence (P04150 whole entry): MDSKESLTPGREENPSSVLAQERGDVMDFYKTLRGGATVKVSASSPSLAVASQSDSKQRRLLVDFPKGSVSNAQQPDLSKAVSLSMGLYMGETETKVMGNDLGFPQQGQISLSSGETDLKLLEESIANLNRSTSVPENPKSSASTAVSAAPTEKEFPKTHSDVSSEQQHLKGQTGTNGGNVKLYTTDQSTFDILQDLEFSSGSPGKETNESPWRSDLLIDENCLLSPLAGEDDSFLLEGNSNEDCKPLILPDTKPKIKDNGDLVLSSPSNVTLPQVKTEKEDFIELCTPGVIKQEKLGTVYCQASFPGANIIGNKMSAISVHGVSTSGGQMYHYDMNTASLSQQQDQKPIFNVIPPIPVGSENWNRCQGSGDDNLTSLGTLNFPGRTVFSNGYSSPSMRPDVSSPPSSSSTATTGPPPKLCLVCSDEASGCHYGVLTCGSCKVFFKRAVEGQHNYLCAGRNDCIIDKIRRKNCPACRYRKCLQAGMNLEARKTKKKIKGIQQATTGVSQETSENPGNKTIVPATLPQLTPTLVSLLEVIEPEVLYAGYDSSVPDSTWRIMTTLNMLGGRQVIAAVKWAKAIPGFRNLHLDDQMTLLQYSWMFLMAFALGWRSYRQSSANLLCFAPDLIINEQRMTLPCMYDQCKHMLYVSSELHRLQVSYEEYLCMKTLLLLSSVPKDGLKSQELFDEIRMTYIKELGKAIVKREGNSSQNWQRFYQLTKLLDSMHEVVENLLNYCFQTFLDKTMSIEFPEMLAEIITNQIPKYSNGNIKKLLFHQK
Conditions: hela s3.

Series [11] addresses Protein kinase C alpha type (Homo sapiens, UniProt P17252). The format is cell-based. Conditions: sf9.
Series [12] has as its target T4, Vasoactive intestinal polypeptide receptor 1 (Homo sapiens, UniProt P32241). Also: in other assays of this panel Not Active means under 50% inhibition at 10 µM.
T4 sequence (P32241 whole entry): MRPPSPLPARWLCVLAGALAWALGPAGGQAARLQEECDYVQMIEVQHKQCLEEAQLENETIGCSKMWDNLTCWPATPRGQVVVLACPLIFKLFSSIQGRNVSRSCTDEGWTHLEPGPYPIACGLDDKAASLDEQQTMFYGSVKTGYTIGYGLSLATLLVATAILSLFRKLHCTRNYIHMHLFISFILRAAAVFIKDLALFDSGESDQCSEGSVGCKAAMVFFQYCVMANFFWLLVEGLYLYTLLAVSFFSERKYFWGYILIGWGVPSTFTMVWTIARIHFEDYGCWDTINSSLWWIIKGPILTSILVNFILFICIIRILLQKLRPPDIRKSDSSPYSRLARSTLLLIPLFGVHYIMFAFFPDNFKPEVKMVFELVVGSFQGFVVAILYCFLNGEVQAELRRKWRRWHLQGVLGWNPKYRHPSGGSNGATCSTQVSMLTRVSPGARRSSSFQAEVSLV
The format is cell membranes, Membrane. Conditions: ht-29.

The structures appear in SMILES notation.

Cytochrome P450 2D6, sequence (P10635 whole entry): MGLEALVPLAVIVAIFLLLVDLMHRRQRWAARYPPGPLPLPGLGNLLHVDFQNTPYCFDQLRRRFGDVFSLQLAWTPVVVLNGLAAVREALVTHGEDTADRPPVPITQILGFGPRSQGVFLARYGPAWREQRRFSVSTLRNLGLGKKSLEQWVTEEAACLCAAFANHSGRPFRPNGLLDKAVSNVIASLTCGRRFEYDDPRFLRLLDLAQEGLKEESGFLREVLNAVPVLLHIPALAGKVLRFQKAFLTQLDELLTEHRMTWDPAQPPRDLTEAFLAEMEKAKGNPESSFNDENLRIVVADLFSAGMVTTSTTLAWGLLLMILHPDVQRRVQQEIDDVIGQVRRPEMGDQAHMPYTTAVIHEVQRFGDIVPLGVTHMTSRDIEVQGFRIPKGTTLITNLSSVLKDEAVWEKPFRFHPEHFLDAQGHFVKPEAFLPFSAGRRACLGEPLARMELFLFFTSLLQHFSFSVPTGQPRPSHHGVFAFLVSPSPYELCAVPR
5-hydroxytryptamine receptor 1B, sequence (P28564 whole entry): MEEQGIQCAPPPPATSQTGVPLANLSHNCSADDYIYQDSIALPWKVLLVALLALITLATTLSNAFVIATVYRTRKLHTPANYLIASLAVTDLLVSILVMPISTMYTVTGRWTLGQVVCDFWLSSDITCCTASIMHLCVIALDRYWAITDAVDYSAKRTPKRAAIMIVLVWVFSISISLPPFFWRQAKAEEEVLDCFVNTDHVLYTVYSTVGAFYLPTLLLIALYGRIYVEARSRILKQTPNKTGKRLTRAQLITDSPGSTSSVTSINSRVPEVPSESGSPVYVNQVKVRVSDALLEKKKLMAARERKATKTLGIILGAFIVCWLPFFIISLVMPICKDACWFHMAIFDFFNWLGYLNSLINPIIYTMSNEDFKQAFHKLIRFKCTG
5-hydroxytryptamine receptor 2B, sequence (P41595 whole entry): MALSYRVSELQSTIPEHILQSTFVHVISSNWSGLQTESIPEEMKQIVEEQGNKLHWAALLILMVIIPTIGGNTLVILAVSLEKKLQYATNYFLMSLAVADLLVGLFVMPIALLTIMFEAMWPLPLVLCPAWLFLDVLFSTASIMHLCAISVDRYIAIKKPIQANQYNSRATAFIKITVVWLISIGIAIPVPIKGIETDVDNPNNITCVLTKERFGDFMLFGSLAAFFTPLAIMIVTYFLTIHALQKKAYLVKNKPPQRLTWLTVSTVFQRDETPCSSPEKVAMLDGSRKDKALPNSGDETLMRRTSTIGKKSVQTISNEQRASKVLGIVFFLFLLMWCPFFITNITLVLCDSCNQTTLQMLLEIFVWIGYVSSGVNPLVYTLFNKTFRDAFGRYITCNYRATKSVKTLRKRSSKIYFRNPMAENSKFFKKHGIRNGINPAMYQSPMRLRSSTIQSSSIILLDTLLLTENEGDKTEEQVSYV
Voltage-gated inwardly rectifying potassium channel KCNH2, sequence (Q12809 whole entry): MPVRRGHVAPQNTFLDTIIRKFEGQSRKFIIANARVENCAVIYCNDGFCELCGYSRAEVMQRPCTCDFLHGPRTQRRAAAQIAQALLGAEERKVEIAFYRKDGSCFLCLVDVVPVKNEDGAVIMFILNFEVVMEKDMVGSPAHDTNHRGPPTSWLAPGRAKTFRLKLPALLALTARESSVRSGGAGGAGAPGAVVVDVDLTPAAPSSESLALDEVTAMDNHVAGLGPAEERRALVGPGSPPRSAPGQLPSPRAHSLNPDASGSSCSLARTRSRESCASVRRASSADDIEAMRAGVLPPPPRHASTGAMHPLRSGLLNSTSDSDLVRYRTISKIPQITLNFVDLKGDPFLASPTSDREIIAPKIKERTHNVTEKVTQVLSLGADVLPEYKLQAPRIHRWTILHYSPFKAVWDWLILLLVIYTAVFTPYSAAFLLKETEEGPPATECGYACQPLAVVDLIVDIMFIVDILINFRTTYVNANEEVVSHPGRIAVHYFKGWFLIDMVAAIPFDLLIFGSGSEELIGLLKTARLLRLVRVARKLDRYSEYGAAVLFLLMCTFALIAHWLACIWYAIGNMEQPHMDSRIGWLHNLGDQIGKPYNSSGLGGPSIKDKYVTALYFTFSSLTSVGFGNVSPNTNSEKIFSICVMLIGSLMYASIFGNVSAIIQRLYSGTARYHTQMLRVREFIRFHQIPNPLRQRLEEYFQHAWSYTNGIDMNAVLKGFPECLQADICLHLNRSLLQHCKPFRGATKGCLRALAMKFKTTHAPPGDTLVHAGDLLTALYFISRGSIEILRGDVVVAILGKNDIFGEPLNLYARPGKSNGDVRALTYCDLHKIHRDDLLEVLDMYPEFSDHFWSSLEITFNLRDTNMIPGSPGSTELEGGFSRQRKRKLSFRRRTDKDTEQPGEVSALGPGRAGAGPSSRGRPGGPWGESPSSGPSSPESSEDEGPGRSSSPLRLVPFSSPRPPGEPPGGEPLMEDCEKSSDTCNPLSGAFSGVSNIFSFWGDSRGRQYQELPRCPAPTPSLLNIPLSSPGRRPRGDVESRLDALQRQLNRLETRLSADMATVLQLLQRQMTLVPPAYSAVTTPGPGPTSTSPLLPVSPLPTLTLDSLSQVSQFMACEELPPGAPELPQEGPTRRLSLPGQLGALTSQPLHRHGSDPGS
D(1A) dopamine receptor, sequence (P21728 whole entry): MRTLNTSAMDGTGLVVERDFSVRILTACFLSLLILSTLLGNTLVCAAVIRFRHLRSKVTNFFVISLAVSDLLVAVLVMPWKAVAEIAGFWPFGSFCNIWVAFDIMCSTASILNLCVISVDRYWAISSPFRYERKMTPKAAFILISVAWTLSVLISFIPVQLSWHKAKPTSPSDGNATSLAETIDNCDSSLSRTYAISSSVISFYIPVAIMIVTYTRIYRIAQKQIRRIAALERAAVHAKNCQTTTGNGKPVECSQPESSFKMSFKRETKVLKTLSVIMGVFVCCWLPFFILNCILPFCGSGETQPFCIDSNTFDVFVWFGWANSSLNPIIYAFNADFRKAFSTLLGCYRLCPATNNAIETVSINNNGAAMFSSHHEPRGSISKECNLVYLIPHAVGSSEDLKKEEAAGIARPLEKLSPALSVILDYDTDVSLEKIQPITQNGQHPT

One may read the IC50 as the concentration that gives 50% inhibition. The term Ki denotes a measure of affinity in units of concentration, obtained from inhibition or displacement. Turning to `CCOC(=O)[C@H](CCc1ccccc1)N[C@@H](C)C(=O)N1[C@H](C(=O)O)C[C@@H]2CCC[C@@H]21`, the half-inhibitory concentration (IC50) result in [1], in series [2], in series [3], in [4], in series [5] and in [6] was “Not Active” each time. Also, the IC50 entry in series [7] (cho-k1), in series [8], in series [9], in series [10], in series [11] and in [12] was “Not Active” in each case. The Ki entry in [1], in series [2], in series [5], in series [8] and in series [9] was “Not Active” each time.

For `CC1(C)[C@H]2CC[C@]1(C)C(=O)C2` [(-)-CAMPHOR], the IC50 entry in series [1], in series [2], in [3], in series [4], in [5] and in series [6] was “Not Active” in each case. In addition, the IC50 result in [7] (cho-k1), in series [8], in series [9], in series [10], in [11] and in series [12] was “Not Active” throughout. The Ki result in series [1], in [2], in series [5], in series [8] and in [9] was “Not Active” each time.

`CC(C)(C)NCC(O)c1ccc(O)c(CO)c1` (centres undefined) [ALBUTEROL]: the half-inhibitory concentration (IC50) entry in [1], in series [2], in series [3], in series [4], in series [5] and in [6] was “Not Active” throughout. The IC50 result in series [7] (cho-k1), in series [8], in series [9], in series [10], in series [11] and in series [12] was “Not Active” each time. Further, the inhibition constant Ki entry in series [1], in [2], in series [5], in series [8] and in series [9] was “Not Active” in each case.

Regarding `Oc1c(I)cc(I)c2cccnc12` [IODOQUINOL], the IC50 result in series [1], in [2], in series [3], in series [4], in series [5] and in [6] was “Not Active” in each case. Besides, the IC50 result in series [7] (cho-k1), in [8], in [9], in series [10], in series [11] and in series [12] was “Not Active” in each case. In addition, the inhibitory constant (Ki) entry in series [1], in series [2], in series [5], in series [8] and in series [9] was “Not Active” each time.

Regarding `CC1=C(/C=C/C(C)=C/C=C/C(C)=C\C(=O)O)C(C)(C)CCC1` [ISOTRETINOIN], the IC50 entry is “Not Active” in series [1]; “Not Active” in series [3]; “Not Active” in series [4]; “Not Active” in [5]; “Not Active” in [6]; 848 nM in [7] (read-out: IC50). For the same molecule, the IC50 result in [8], in series [9], in [10], in [11] and in [12] was “Not Active” each time. For the same molecule, the Ki entry in series [1] is “Not Active”; in [5], “Not Active”; in series [7] (read-out: Ki), 540 nM; in [8], “Not Active”; in [9], “Not Active”.

Take `C[C@]12Cc3c[nH]nc3C[C@@H]1CC[C@@H]1[C@@H]2CC[C@@]2(C)[C@H]1CC[C@]2(C)O` [STANOZOLOL]: the IC50 entry in series [1], in [2], in series [3], in series [4], in series [5] and in [6] was “Not Active” each time. Also, the IC50 result in series [7] (cho-k1), in series [9], in series [10], in series [11] and in series [12] was “Not Active” each time. The Ki entry in series [1], in series [2], in [5] and in [9] was “Not Active” each time.
